Publication PMC10177510, “A Multicenter, Open-Label, Phase I/II Study of FN-1501 in Patients with Advanced Solid Tumors” (Cancers, 2023)

Tested on: advanced solid tumors
Test: Anti-tumor activity in patients (RECIST best response, PFS, OS)
Format: in vivo, human
Protocol: Among 64 pts enrolled in the trial, 16 failed screening and 48 (75%) were treated with FN-1501 at one of the dose levels tested. Eligible pts were ≥18 years of age with (a) relapsed or refractory AML that had exhausted or was ineligible for therapeutic options, or with ≥5% blasts in the bone marrow according to World Health Organization (WHO) 2016 criteria; or (b) solid tumors evaluable per RECIST v1.1 that had exhausted (or were ineligible for) therapeutic options likely to convey clinical benefit. Other inclusion criteria included Eastern Cooperative Oncology Group (ECOG) performance status (PS) of <2 and life expectancy ≥3 months. Pts with a clinically controlled central nervous system (CNS) tumor or metastasis and adequate organ function were eligible to participate. Ongoing use of strong CYP3A inhibitors or inducers was exclusionary unless participants were willing and able to change to use of an equivalent medication without this profile. Other exclusion criteria included current or recent major surgical procedures, anticancer therapy (chemotherapy, immunotherapy), biologic, live virus vaccine, or investigational therapy within 21 days prior to initiation of the study treatment. For patients in the AML cohort, acute promyelocytic leukemia (APML), chronic myelogenous leukemia in blast crisis (BCR-ABL), or active CNS leukemia were exclusionary.
Descriptive statistics were used for all safety, PK, and efficacy parameters. Data were summarized using descriptive statistics (number of pts, mean, median, standard deviation, minimum, and maximum) for continuous variables and using frequencies and percentages for discrete variables. Time-to-event variables were summarized using Kaplan–Meier methods and figures for the estimated median time.

CN1CCN(Cc2ccc(NC(=O)c3[nH]ncc3Nc3ncnc4[nH]ccc34)cc2)CC1 [FN-1501]
Complete Response, best RECIST response, n (%) (2.5 mg/day, N = 4, ITT): 0 | DCR (2.5 mg/day, N = 4, ITT): 0.0% | Landmark Progression Free Survival Rate at 3 months (Table S6, Overall Survival) (2.5 mg/day, N = 4, ITT): 37.5% | Landmark Progression Free Survival Rate at 6 months (Table S6, Overall Survival) (2.5 mg/day, N = 4, ITT): 37.5% | Landmark Progression Free Survival Rate at 9 months (Table S6, Overall Survival) (2.5 mg/day, N = 4, ITT): 37.5% | Landmark Progression Free Survival Rate at 12 months (Table S6, Overall Survival) (2.5 mg/day, N = 4, ITT): 37.5% | Median overall survival (2.5 mg/day, N = 4, ITT): 2.0 months | Median progression-free survival (2.5 mg/day, N = 4, ITT): 1.8 months | ORR (2.5 mg/day, N = 4, ITT): 0.0% | Partial Response, best RECIST response, n (%) (2.5 mg/day, N = 4, ITT): 0 | Progression Free Survival Rate at 3 months (2.5 mg/day, N = 4, ITT): 0.0% | Progression Free Survival Rate at 6 months (2.5 mg/day, N = 4, ITT): 0.0% | Progression Free Survival Rate at 9 months (2.5 mg/day, N = 4, ITT): 0.0% | Progression Free Survival Rate at 12 months (2.5 mg/day, N = 4, ITT): 0.0% | Progressive Disease, best RECIST response, n (%) (2.5 mg/day, N = 4, ITT): 3 | Stable Disease, best RECIST response, n (%) (2.5 mg/day, N = 4, ITT): 0 | Complete Response, best RECIST response, n (%) (5 mg/day, N = 3, ITT): 0 | DCR (5 mg/day, N = 3, ITT): 0.0% | Landmark Progression Free Survival Rate at 3 months (Table S6, Overall Survival) (5 mg/day, N = 3, ITT): 50.0% | Landmark Progression Free Survival Rate at 6 months (Table S6, Overall Survival) (5 mg/day, N = 3, ITT): 0.0% | Landmark Progression Free Survival Rate at 9 months (Table S6, Overall Survival) (5 mg/day, N = 3, ITT): 0.0% | Landmark Progression Free Survival Rate at 12 months (Table S6, Overall Survival) (5 mg/day, N = 3, ITT): 0.0% | Median overall survival (5 mg/day, N = 3, ITT): 2.6 months | Median progression-free survival (5 mg/day, N = 3, ITT): 1.7 months | ORR (5 mg/day, N = 3, ITT): 0.0% | Partial Response, best RECIST response, n (%) (5 mg/day, N = 3, ITT): 0 | Progression Free Survival Rate at 3 months (5 mg/day, N = 3, ITT): 0.0% | Progression Free Survival Rate at 6 months (5 mg/day, N = 3, ITT): 0.0% | Progression Free Survival Rate at 9 months (5 mg/day, N = 3, ITT): 0.0% | Progression Free Survival Rate at 12 months (5 mg/day, N = 3, ITT): 0.0% | Progressive Disease, best RECIST response, n (%) (5 mg/day, N = 3, ITT): 2 | Stable Disease, best RECIST response, n (%) (5 mg/day, N = 3, ITT): 0 | Complete Response, best RECIST response, n (%) (10 mg/day, N = 5, ITT): 0 | DCR (10 mg/day, N = 5, ITT): 20.0% | Landmark Progression Free Survival Rate at 3 months (Table S6, Overall Survival) (10 mg/day, N = 5, ITT): 60.0% | Landmark Progression Free Survival Rate at 6 months (Table S6, Overall Survival) (10 mg/day, N = 5, ITT): 60.0% | Landmark Progression Free Survival Rate at 9 months (Table S6, Overall Survival) (10 mg/day, N = 5, ITT): 60.0% | Landmark Progression Free Survival Rate at 12 months (Table S6, Overall Survival) (10 mg/day, N = 5, ITT): 60.0% | Median progression-free survival (10 mg/day, N = 5, ITT): 1.4 months | ORR (10 mg/day, N = 5, ITT): 0.0% | Partial Response, best RECIST response, n (%) (10 mg/day, N = 5, ITT): 0 | Progression Free Survival Rate at 3 months (10 mg/day, N = 5, ITT): 20.0% | Progression Free Survival Rate at 6 months (10 mg/day, N = 5, ITT): 0.0% | Progression Free Survival Rate at 9 months (10 mg/day, N = 5, ITT): 0.0% | Progression Free Survival Rate at 12 months (10 mg/day, N = 5, ITT): 0.0% | Progressive Disease, best RECIST response, n (%) (10 mg/day, N = 5, ITT): 2 | Stable Disease, best RECIST response, n (%) (10 mg/day, N = 5, ITT): 1 (20) | Complete Response, best RECIST response, n (%) (15 mg/day, N = 3, ITT): 0 | DCR (15 mg/day, N = 3, ITT): 100.0% | Median progression-free survival (15 mg/day, N = 3, ITT): 4.1 months | ORR (15 mg/day, N = 3, ITT): 0.0% | Partial Response, best RECIST response, n (%) (15 mg/day, N = 3, ITT): 0 | Progression Free Survival Rate at 6 months (15 mg/day, N = 3, ITT): 33.3% | Progression Free Survival Rate at 9 months (15 mg/day, N = 3, ITT): 0.0% | Progression Free Survival Rate at 12 months (15 mg/day, N = 3, ITT): 0.0% | Progressive Disease, best RECIST response, n (%) (15 mg/day, N = 3, ITT): 0 | Stable Disease, best RECIST response, n (%) (15 mg/day, N = 3, ITT): 3 (100) | Complete Response, best RECIST response, n (%) (22.5 mg/day, N = 4, ITT): 0 | DCR (22.5 mg/day, N = 4, ITT): 50.0% | Landmark Progression Free Survival Rate at 3 months (Table S6, Overall Survival) (22.5 mg/day, N = 4, ITT): 50.0% | Landmark Progression Free Survival Rate at 6 months (Table S6, Overall Survival) (22.5 mg/day, N = 4, ITT): 50.0% | Landmark Progression Free Survival Rate at 9 months (Table S6, Overall Survival) (22.5 mg/day, N = 4, ITT): 25.0% | Landmark Progression Free Survival Rate at 12 months (Table S6, Overall Survival) (22.5 mg/day, N = 4, ITT): 25.0% | Median overall survival (22.5 mg/day, N = 4, ITT): 5.4 months | Median progression-free survival (22.5 mg/day, N = 4, ITT): 5.0 months | ORR (22.5 mg/day, N = 4, ITT): 0.0% | Partial Response, best RECIST response, n (%) (22.5 mg/day, N = 4, ITT): 0 | Progression Free Survival Rate at 3 months (22.5 mg/day, N = 4, ITT): 50.0% | Progression Free Survival Rate at 6 months (22.5 mg/day, N = 4, ITT): 50.0% | Progression Free Survival Rate at 9 months (22.5 mg/day, N = 4, ITT): 25.0% | Progression Free Survival Rate at 12 months (22.5 mg/day, N = 4, ITT): 25.0% | Progressive Disease, best RECIST response, n (%) (22.5 mg/day, N = 4, ITT): 2 (50) | Stable Disease, best RECIST response, n (%) (22.5 mg/day, N = 4, ITT): 2 (50) | Complete Response, best RECIST response, n (%) (30 mg/day, N = 3, ITT): 0 | DCR (30 mg/day, N = 3, ITT): 100.0% | Median progression-free survival (30 mg/day, N = 3, ITT): 3.4 months | ORR (30 mg/day, N = 3, ITT): 0.0% | Partial Response, best RECIST response, n (%) (30 mg/day, N = 3, ITT): 0 | Progression Free Survival Rate at 3 months (30 mg/day, N = 3, ITT): 50.0% | Progression Free Survival Rate at 6 months (30 mg/day, N = 3, ITT): 0.0% | Progression Free Survival Rate at 9 months (30 mg/day, N = 3, ITT): 0.0% | Progression Free Survival Rate at 12 months (30 mg/day, N = 3, ITT): 0.0% | Progressive Disease, best RECIST response, n (%) (30 mg/day, N = 3, ITT): 0 | Stable Disease, best RECIST response, n (%) (30 mg/day, N = 3, ITT): 3 (100) | Patients with best response of partial response (PR) by RECIST (40 mg/day cohort, efficacy evaluable population): 25% | Complete Response, best RECIST response, n (%) (40 mg/day, N = 4, ITT): 0 | DCR (40 mg/day, N = 4, ITT): 50.0% | Landmark Progression Free Survival Rate at 3 months (Table S6, Overall Survival) (40 mg/day, N = 4, ITT): 75.0% | Landmark Progression Free Survival Rate at 6 months (Table S6, Overall Survival) (40 mg/day, N = 4, ITT): 75.0% | Landmark Progression Free Survival Rate at 9 months (Table S6, Overall Survival) (40 mg/day, N = 4, ITT): 75.0% | Landmark Progression Free Survival Rate at 12 months (Table S6, Overall Survival) (40 mg/day, N = 4, ITT): 75.0% | Median progression-free survival (40 mg/day, N = 4, ITT): 2.6 months | ORR (40 mg/day, N = 4, ITT): 25.0% | Partial Response, best RECIST response, n (%) (40 mg/day, N = 4, ITT): 1 | Progression Free Survival Rate at 3 months (40 mg/day, N = 4, ITT): 33.3% | Progression Free Survival Rate at 6 months (40 mg/day, N = 4, ITT): 0.0% | Progression Free Survival Rate at 9 months (40 mg/day, N = 4, ITT): 0.0% | Progression Free Survival Rate at 12 months (40 mg/day, N = 4, ITT): 0.0%
